Test results: patent publication US11345702B1 (Myoforte Therapeutics, Inc., priority 2020, dated 2022)

Legend:
15-PGDH/HPGD = 15-PGDH/HPGD (Homo sapiens (Human), UniProt P15428); test: hPGDH inhibitor screening biochemical assay; settings: read-out: hPGDH: Average IC50
In short: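 Recombinant human 15-PGDH (10 nM) pre-incubated with compounds 10 min at 37 °C, then 15 μM PGE2 and 0.25 mM NAD+ added for 10 min at room temperature in 50 mM Tris-HCl pH 7.5, 0.01% Tween 20. NADH fluorescence read at ex/em 340/485 nm. IC50 from 10-point curves, four-parameter fit versus 1% DMSO.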

[1] = Liver microsome stability assay (HLM); format: in vitro ADME; settings: human liver microsomes
Procedure: (§1) A microsomal mixture (microsomes and Kphos buffer) was prepared at a concentration of 1.428 mg/mL in 2 mL tubes. To this microsomal mixture 1.6 μL (1 mM) of test compound and positive control were spiked; from this mixture, 70 μL was transferred to 96 well plate and pre-incubated at 37° C. for 5 min. After pre-incubation, the zero minute time point reaction was stopped using 100 μL of ice-cold acetonitrile containing internal standard and […] (3.33 mM in Kphos buffer) was added. The 45 minute time point reaction was initiated by addition of 30 μL of NADPH (3.33 mM in Kphos buffer) and incubated at 37° C. for 15 and 45 min. Reactions without NADPH and buffer controls (minus NADPH) at 0, 15, and 45 minutes were also incubated to rule out non-NADPH metabolism or chemical instability in the incubation buffer. Incubation reactions were stopped with 100 μL of ice-cold acetonitrile containing internal standard. The plates were centrifuged at 4000 RPM for 15 min and 100 μL aliquots were submitted for analysis by LC-MS/MS. (Verapamil in human liver microsomes (HLM) and rat liver microsomes (RLM) was used as positive controls. Imipramine in mouse liver microsomes (MLM) was used as a positive control.) Samples were monitored for parent compound disappearance in MRM mode (multiple reaction monitoring) using LC-MS/MS. The peak area ratios of analyte versus internal standard were used to calculate the % remaining at the end of 45 minutes in the presence of NADPH.

[2] = Liver microsome stability assay (RLM); format: in vitro ADME; settings: rat liver microsomes
Procedure: as §1

A549 cells = test: A549 cell-based assay (PGE2 level)
Procedure: 30,000 A549 cells per well were seeded into a tissue culture treated flat bottom 96 well plate, and incubated for 24 hours in a 37° C., […] incubator. After 24 hours of incubation, complete media were replaced with 100 μL of low serum (F12K+1% FBS) media and the plate was incubated for 24 hours in a 37° C., 5% CO2 incubator. After 24 hours of incubation, low serum media was replaced with 80 μL of complete medium (F12K+10% FBS) and 10 μL (10× concentration) of compounds were added and incubated at 37° C. for 30 minutes followed by stimulation of 10 μL (10× concentration) of IL-1b (Final concentration 0.25 ng/mL) overnight in a 37° C., […] incubator. After 24 hours of incubation, the supernatant was collected and the PGE2 level was detected by using Cisbio HTRF kit (Catalog #62P2APEH). Briefly, 5 μL of sample (100-Fold diluted) was dispensed into each sample well. 5 μL of each Prostaglandin E2 standard (Std 0-Std 7) was dispensed into each standard well. 2.5 μL of Prostaglandin E2-d2 working solution was added to all wells except negative controls and 2.5 μL of Anti-Prostaglandin E2-Eu3+ Cryptate working solution was added to all wells. […] After 5 hours of incubation, the plate sealer was removed and the plate was read on a HTRF® compatible reader. Delta F and PGE2 level were calculated as per kit instructions. % Fold change was calculated with respect to DMSO control wells.

Solubility at pH 7.4 = format: physicochemical; settings: pH 7.4
[3] = Liver microsome stability assay (MLM); format: in vitro ADME; settings: mouse liver microsomes
In short: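 Mouse, rat or human liver microsomes (mixture at 1.428 mg/mL) in potassium phosphate buffer, 37 °C, incubated with compound after NADPH addition; minus-NADPH controls included. Parent loss by LC-MS/MS (MRM) with internal standard; value is % remaining at 45 min with NADPH.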

15-PGDH/HPGD, sequence (P15428 whole entry): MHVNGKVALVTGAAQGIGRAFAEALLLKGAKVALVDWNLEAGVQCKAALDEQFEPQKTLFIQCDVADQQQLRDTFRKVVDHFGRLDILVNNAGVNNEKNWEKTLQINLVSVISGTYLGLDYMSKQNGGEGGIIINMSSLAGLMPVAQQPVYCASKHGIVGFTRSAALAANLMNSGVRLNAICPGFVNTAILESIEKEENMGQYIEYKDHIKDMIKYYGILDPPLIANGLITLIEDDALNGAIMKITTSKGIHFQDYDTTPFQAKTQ

SMILES	IC50 (15-PGDH/HPGD)	HLM + NADPH (% remaining at 45 min) [1]	RLM + NADPH (% remaining at 45 min) [2]	activity in the A549 cell-based assay (FIG. 1) (A549 cells)	Solubility: Solubility at pH 7.4 (μM) (Solubility at pH 7.4)	MLM + NADPH (% remaining at 45 min) [3]
O=C(c1cnc2c(ccn2-c2ccc3c(c2)OCO3)c1)N1CCC(F)CC1 [MF-DH-175]	< 100 nM	117%	45%	–	–	–
N#Cc1ccc(-n2ccc3cc(C(=O)N4CCC(F)CC4)cnc32)cc1 [MF-DH-342]	< 100 nM	–	–	displayed activity	–	–
O=C(c1cnc2c(c1)ncn2-c1cccc(Cl)c1)N1CCCCC1 [MF-PGDH-020]	< 100 nM	87%	23%	–	150 μM	30%
COc1ccc(-n2cnc3cc(C(=O)N4CCCCC4)cnc32)cc1 [MF-PGDH-077]	< 100 nM	97%	84%	–	160 μM	–
COc1ccc(-n2cnc3cc(C(=O)N4CCC(F)CC4)cnc32)cc1 [MF-PGDH-078]	< 100 nM	96%	89%	–	140 μM	–
COc1ccc(-n2cnc3cc(C(=O)N4CCC(F)(F)CC4)cnc32)cc1 [MF-PGDH-079]	< 100 nM	100%	87%	–	140 μM	–
